Laboratory results as given in patent US20240327411A1, “SIRT6 ACTIVATORS” (The Board of Regents of The University of Texas System, priority 2022, published 2024).

Tests used:
BV2 cells = test: LPS-induced inflammatory gene mRNA expression in BV2 cells, q-PCR; type: cell-based, murine; details: for LPS-induced expression of IL-1β, IL-6, MCP-1, and TNFα: 30 μM pretreatment 30 minutes
Sirt3 = target: T1, Sirt3 (Homo sapiens, UniProt Q9NTG7); test: Sirt3 deacetylation activity assay kit; details: time course, FIG. 3
T1 sequence (Q9NTG7 1-399): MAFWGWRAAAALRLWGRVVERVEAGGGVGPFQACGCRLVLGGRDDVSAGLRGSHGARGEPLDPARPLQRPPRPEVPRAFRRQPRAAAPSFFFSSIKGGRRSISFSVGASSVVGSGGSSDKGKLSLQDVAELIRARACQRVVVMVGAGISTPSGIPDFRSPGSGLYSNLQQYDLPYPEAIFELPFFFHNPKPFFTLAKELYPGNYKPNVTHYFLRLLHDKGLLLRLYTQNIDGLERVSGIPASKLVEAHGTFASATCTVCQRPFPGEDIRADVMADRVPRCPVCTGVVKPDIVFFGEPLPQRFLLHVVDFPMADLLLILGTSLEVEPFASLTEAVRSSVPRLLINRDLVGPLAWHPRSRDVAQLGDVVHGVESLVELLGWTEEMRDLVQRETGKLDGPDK
Protocol: (§2) Sirt6/Sirt1/Sirt2/Sirt3 activity was tested by Activity Assay Kits (Abcam) according to the manufacturer's instruction with minor modification. […] All experiments were conducted at room temperature.

Sirt6 [1] = target: T2, Sirt6 (Homo sapiens, UniProt Q8N6T7); test: Sirt6-dependent peptide deacetylation, FLUOR DE LYS / Sirt6 fluorometric activity kit; type: biochemical; details: mean ± SD, at least two independent experiments
T2 sequence (Q8N6T7 whole entry): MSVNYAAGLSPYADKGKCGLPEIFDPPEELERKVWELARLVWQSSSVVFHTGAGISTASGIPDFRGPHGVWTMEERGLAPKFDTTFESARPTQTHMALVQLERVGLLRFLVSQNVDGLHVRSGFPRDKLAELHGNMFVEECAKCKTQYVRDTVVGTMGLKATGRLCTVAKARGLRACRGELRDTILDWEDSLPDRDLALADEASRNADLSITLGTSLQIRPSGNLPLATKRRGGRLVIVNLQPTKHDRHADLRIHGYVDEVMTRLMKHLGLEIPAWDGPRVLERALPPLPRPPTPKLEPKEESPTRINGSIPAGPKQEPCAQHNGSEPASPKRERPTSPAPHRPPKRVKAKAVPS
Protocol: as §2

A549-hACE2 cells = test: Cell viability assay in A549-hACE2 cells; details: 50 μM, 48 h
Sirt1 = target: T3, Sirt1 (Homo sapiens, UniProt Q96EB6); test: Sirt1 deacetylation activity assay kit; details: time course, FIG. 3
T3 sequence (Q96EB6 1-747): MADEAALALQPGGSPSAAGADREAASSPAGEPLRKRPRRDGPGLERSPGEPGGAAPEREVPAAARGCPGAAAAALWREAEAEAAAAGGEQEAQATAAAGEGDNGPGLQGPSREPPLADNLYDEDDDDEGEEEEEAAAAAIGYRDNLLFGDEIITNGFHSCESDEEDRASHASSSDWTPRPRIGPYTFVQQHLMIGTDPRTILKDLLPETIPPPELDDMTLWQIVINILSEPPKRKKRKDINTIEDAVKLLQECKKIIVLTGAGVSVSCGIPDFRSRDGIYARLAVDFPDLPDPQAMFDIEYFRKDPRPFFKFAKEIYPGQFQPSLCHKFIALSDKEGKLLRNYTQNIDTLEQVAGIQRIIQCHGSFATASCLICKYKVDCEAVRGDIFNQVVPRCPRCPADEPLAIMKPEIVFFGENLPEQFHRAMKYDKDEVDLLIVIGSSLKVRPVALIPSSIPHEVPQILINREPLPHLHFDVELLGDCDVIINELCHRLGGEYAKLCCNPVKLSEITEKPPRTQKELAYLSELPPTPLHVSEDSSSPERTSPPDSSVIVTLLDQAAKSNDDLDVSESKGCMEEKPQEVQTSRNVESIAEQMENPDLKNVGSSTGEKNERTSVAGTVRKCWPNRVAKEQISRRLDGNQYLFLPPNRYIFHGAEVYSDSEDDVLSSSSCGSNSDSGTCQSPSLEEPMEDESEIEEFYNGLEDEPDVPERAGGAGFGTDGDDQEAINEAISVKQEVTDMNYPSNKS
Protocol: as §2

Sirt6 [2] = target: T2, Sirt6; test: Nucleosome test: Sirt6-dependent H3K9 deacetylation of nucleosomes from HEK293T cells, Western blot; type: biochemical; details: 100 μM, 30° C., 60 minutes
Protocol: (§1) . Nucleosomes extracted from HEK293T cells were incubated with 100 μM of selected compounds or Vehicle at 30° C. for 60 minutes. Acetylated H3K9 and total H3 were detected by Western blot. The level of acetylated H3K9 was quantified by Image Lab software. FIGS. 5B and 5C show the cell viability which was assessed by MTT assay. R28 cells were treated with 30 μM or 100 μM compounds for 24 hours. Data were presented as mean±SEM. The experiment was repeated at least three times. ***p<0.001; ****p<0.0001.
Next, effects of selected compounds were explored for Sirt6-dependent deacetylation of complete nucleosomes extracted from human embryonic kidney (HEK) 293T cells, as nucleosomes represent more physiologically relevant substrates. […]. Briefly, HEK 293T cells in 100 mm dish were lysed with lysis buffer supplemented with PIC and PMSF for 30 min. After centrifugation for 10 min at 5000 rpm at 4° C., supernatant was removed and nuclei pellet was resuspended with digestion buffer supplemented with PIC and PMSF for 5 min at 37° C. Working enzymatic sharing cocktail was added to digest the chromatin, and EDTA was added after incubation to stop the digestion. Digested nucleosome was obtained in the supernatant after centrifugation for 10 min at 15000 rpm at 4° C. and the concentration was quantified by measuring the absorbance at […]. 20 μg nucleosome was incubated in solution (1× buffer, 0.5 μL recombinant Sirt6 and […] NAD, from SIRT6 ACTIVITY ASSAY KIT) for 60 min. To test the effects of the compounds on Sirt6 activity, corresponding compound or DMSO control was added before incubation. The reaction mixture was analyzed by Western blot.
Proteins were extracted from cells with PIERCE RIPA BUFFER (89901, ThermoFisher Scientific), and protein concentration was determined using PIERCE BCA PROTEIN ASSAY KIT (23225, ThermoFisher Scientific). Equal amounts of protein were loaded and separated by SDS-PAGE gel. Next, separated proteins were transferred onto Nitrocellulose Blotting Membranes (A29457237, GE Healthcare Life science), and then the membranes were blocked by 5% non-fat dry milk. After incubation with corresponding primary antibodies against H3K9ac, H3 and Sirt6 at a 1:1000 dilution, or α-tubulin at a 1:5000 dilution, goat anti-mouse or goat anti-rabbit secondary antibodies at a 1:5000 dilution were applied. Finally, membranes were incubated with enhanced chemiluminescent and protein bands were detected by CHEMIDOC imaging system (Bio-Rad). Image-Lab software was used to analyze the intensities of the protein bands.

SARS-CoV-2 = test: microbe, parasite or virus in culture; type: cell-based
[3] = test system: retinal precursor cells (R28); test: MTT cell viability assay in R28 cells; type: cell-based; details: 30 μM, 24 hours
Protocol: as §1, with “FIGS. 5A-5C: FIGS. 5A-5C display the deacetylation effect and cytotoxicity of selected compounds. […] Nucleosomes” for “. Nucleosomes”
R28 cells were seeded in 96 well plates at a density of 1×10^4/well overnight, then treated with compounds for 24 h. MTT (MilliporeSigma) was added to cells (20 μL/well) and incubated for 3.5 h. After medium was removed, 100 μL dimethyl sulfoxide (DMSO) was added into each well. Absorbance was measured at 540 nm using a microplate reader.

HCC tumor = details: mouse xenograft models; literature; cited from earlier work
[4] = test system: human hepatocellular carcinoma (HCC) cells; details: literature, cited from earlier work
[5] = test system: colorectal cancer (CRC) cell lines; details: various CRC cell lines; literature; cited from earlier work
CRC tumor = details: cell line- and patient-derived xenografts, APCmin/+ spontaneous CRC model; literature; cited from earlier work
[6] = in mice; literature; cited from earlier work
Sirt1, 2, and 3 = details: literature; cited from earlier work
Sirt6 [7] = target: T2, Sirt6; details: literature value; cited from earlier work
[8] = BV2 cells, 100 ng/mL LPS 6 hours, mRNA

Q: With `CN(C)CCN1CCN(c2ncccc2C2Nc3ccccc3-n3cccc32)CC1` (stereo not shown) [Compound 38, 2-(4-(3-(4,5-Dihydropyrrolo[1,2-a]quinoxalin-4-yl)pyridin-2-yl)piperazin-1-yl)-N,N-dimethylethan-1-amine] as the compound, how does the “LPS-induced expression of IL-1β, IL-6, MCP-1, and TNFα” value (BV2 cells; [8]) read?
A: strongly inhibited

Q: What about the ICAM-1 induction (BV2 cells; BV2 cells, 30 μM, 100 ng/mL LPS 6 hours, mRNA) of the same compound?
A: slight inhibition

Q: And the “LPS-induced proinflammatory cytokine/chemokine production” value (BV2 cells; summary statement)?
A: strongly repressed

Q: And the “effect on Sirt3 deacetylation” value (Sirt3)?
A: no significant effects

Q: What about the “Activation Fold 30 μM” value (Sirt6 [1]; compound at 30 μM) of the same compound?
A: 3.83 ± 0.46 fold

Q: And the “Activation Fold 100 μM” value (Sirt6 [1]; compound at 100 μM)?
A: 7.38 ± 0.6 fold

Q: And the “cytotoxicity at the highest tested concentration” value (A549-hACE2 cells)?
A: none of these compounds exhibited significant cytotoxicity

Q: And the “effect on Sirt1 deacetylation” value (Sirt1)?
A: no significant effects

Q: And the “acetylation of H3K9 in the nucleosome test” value (Sirt6 [2])?
A: significantly decreased the acetylation of H3K9

Q: What about the “potency in inhibiting SARS-CoV-2 infection (in words)” value (SARS-CoV-2) of the same compound?
A: micromolar potency

Q: And the EC50 (SARS-CoV-2; Severe acute respiratory syndrome coronavirus 2, 48 h, read-out: EC50, SARS-CoV-2 infection)?
A: 9.3 µM

Q: And the “toxicity on retinal precursor cells (R28)” value [3]?
A: no obvious toxicity

Q: Which HCC tumor growth (HCC tumor) does the source give for `COC(=O)c1cc(NS(=O)(=O)c2cc(Cl)cc(Cl)c2)ccc1S(=O)(=O)Nc1cc(Br)c(F)cc1C` [MDL-800] here?
A: suppressed HCC tumor growth

Q: And the “H3K9 and H3K56 deacetylation” value ([4]; human HCC cells, dose-dependently)?
A: significantly promoted

Q: And the “proliferation of HCC cells” value [4]?
A: inhibited their proliferation

Q: With `Cc1cc(F)c(Br)cc1NS(=O)(=O)c1ccc(NS(=O)(=O)c2cc(Cl)cc(Cl)c2)cc1CN1CCOC[C@H]1C` [MDL-811] as the compound, how does the antiproliferative effects [5] read?
A: broad antiproliferative effects

Q: What about the anti-tumor efficacy (CRC tumor) of the same compound?
A: in vivo anti-tumor efficacy

Q: And the “bioavailability (F)” value [6]?
A: 92.96%

Q: With `c1cncc(C2Nc3ccccc3-n3cccc32)c1` (stereo not shown) [UBCS039, reference compound] as the compound, how does the “LPS-induced expression of IL-1β, IL-6, MCP-1, and TNFα” value (BV2 cells; [8]) read?
A: strongly inhibited

Q: And the “effects on basal Sirt1, 2, and 3 deacetylation activities” value (Sirt1, 2, and 3)?
A: no obvious effects

Q: What about the “maximum activation (Emax) of Sirt6 deacetylation” value (Sirt6 [7]) of the same compound?
A: ~2 fold

Q: And the “potency in inhibiting SARS-CoV-2 infection (in words)” value (SARS-CoV-2)?
A: micromolar potency
